Data reported in patent US10039756B2, “Reducing memory loss in mammals suffering from alzheimer's disease” (The Penn State Research Foundation, priority 2013, dated 2018).
One block for each molecule: values may come before it.

Tests used:
α5-GABAA-Rs = biological target: T1, α5-GABAA-Rs (Mus musculus, UniProt P22723+Q8BHJ7); test: Tonic current mediated by α5-GABAA-Rs, whole-cell patch clamp in hippocampal slices; assay type: cell-based
T1 construct: from tissue; host or cells: mouse hippocampal slices; dentate granule cells and CA1 pyramidal neurons
T1 sequence (P63080 26-473): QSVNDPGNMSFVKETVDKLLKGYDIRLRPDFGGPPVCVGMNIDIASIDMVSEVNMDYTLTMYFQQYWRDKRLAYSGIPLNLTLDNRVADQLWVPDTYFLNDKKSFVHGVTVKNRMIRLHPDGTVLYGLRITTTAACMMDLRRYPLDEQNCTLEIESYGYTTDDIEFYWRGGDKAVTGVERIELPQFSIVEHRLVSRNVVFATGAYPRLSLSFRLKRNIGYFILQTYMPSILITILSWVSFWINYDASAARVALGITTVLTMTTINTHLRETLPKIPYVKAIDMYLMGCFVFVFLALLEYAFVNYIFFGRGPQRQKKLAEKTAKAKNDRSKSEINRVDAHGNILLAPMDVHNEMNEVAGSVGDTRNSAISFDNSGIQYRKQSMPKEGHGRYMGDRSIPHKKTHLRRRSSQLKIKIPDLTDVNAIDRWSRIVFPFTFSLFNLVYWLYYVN
T1 sequence (Q8BHJ7 32-463): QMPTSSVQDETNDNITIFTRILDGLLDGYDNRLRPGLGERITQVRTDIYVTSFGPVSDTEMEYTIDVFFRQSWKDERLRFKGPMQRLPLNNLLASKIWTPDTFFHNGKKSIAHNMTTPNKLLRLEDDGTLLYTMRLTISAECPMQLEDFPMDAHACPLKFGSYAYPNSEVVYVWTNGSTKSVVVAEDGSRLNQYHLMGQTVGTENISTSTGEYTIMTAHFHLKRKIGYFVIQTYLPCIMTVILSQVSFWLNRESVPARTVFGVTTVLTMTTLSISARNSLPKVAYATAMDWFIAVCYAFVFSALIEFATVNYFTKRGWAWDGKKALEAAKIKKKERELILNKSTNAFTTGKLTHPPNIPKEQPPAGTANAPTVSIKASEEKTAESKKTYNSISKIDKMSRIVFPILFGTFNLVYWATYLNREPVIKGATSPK
T1 sequence (P22723 39-474): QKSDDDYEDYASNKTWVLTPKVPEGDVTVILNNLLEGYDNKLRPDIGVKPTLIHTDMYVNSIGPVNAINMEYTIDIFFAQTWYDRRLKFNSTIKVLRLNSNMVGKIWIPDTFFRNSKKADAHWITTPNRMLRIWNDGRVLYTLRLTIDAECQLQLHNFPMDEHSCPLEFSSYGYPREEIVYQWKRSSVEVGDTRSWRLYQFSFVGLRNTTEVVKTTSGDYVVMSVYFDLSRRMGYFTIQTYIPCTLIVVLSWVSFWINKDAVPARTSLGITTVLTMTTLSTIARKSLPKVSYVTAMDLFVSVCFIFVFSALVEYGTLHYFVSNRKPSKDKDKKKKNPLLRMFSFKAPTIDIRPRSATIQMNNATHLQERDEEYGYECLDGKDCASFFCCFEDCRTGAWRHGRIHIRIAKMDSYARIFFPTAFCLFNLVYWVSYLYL
Experimental: Mice were anesthetized with 2.5% Avertin. After decapitation, brains were rapidly dissected out and placed in ice-cold cutting solution containing: 79 mM NaCl, 80 mM sucrose, 26 mM NaHCO3, 10 mM glucose, 2.5 mM KCl, 1.25 mM NaH2PO4, 7 mM MgSO4, and 0.5 mM CaCl2 for tonic current recordings. The cutting solution for field EPSP recordings contained: 230 mM sucrose, 26 mM NaHCO3, 20 mM glucose, 2.5 mM KCl, 1.25 mM NaH2PO4, 10 mM MgSO4, and 0.5 mM CaCl2. Both solutions were bubbled with 95% O2/5% CO2. Hippocampal slices were cut at 350 μm with a vibratome (VT1200S, Leica, Germany) and transferred to a transitional chamber containing one half of cutting solution and one half of standard artificial cerebrospinal fluid (ACSF). The ACSF was composed of: 125.0 mM NaCl, 2.5 mM KCl, 1.3 mM MgSO4, 26.0 mM NaHCO3, 1.25 mM NaH2PO4, 2.0 mM CaCl2, and mM 10 glucose (290-300 mOsmol; gassed with 95% O2/5% CO2, pH ˜7.4). Slices were then incubated in ACSF at 32° C. for 30 minutes to recover. Subsequently, slices were maintained at room temperature for another 30 minutes before recording. Individual slices were then transferred to a submerged recording chamber where they were continuously perfused (2-3 mL/minute) with ACSF saturated by 95% O2/5% CO2 at 32° C.
Whole-cell voltage clamp recordings were performed on dentate gyrus granule cells using a pipette solution containing: 135 mM CsCl, 5 mM Na-phosphocreatine, 10 mM HEPES, 5 mM EGTA, 4 mM MgATP, 5 mM QX-314, and 0.5 mM Na2GTP (pH 7.3 adjusted with CsOH, 280-290 mOsm/L). Pipette resistance was 2-5 MΩ, and series resistance was typically 20-40 MΩ. To record tonic GABA current, 10 μM CNQX and 50 μM DL-APV were added into the ACSF to block glutamate receptors. In some experiments, 5 μM GABA also was added into the ACSF to reveal larger tonic GABA current and increase the signal-to-noise ratio. […] The membrane potential was held at −70 mV. Data was acquired using pClamp 9 software (Molecular Devices; sampled at 10 kHz and filtered at 1 kHz), and analyzed with Clampfit 9.0 software (Molecular Devices). Field excitatory postsynaptic potentials (fEPSPs) were recorded with glass electrodes filled with 1 M NaCl and 25 mM HEPES (pH 7.3), and were evoked every 20 seconds with a parallel bipolar tungsten electrode (MicroProbes, USA), which was placed at medial perforant path in the dentate gyrus. Three evoked responses were averaged to obtain a data point. […]
The following was performed to investigate which subtype of GABAA-Rs mediate the enhanced tonic GABA current in AD dentate granule cells. […] Quantitatively, the tonic current blocked by L-655,708 in AD dentate granule cells was more than doubled that in WT animals (FIG. 5, panel e; WT, 35.4±6.3 pA, n=12; AD, 98.7±12.9 pA, n=9; p<0.001). […]

LTP in DG = test: Long-term potentiation (LTP) in dentate gyrus, hippocampal slice field EPSP recordings; assay type: cell-based, mouse; settings: 100 nM; 5xFAD dentate granule cells
Experimental: (§1) Mice were anesthetized with 2.5% Avertin. After decapitation, brains were rapidly dissected out and placed in ice-cold cutting solution containing: 79 mM NaCl, 80 mM sucrose, 26 mM NaHCO3, 10 mM glucose, 2.5 mM KCl, 1.25 mM NaH2PO4, 7 mM MgSO4, and 0.5 mM CaCl2 for tonic current recordings. The cutting solution for field EPSP recordings contained: 230 mM sucrose, 26 mM NaHCO3, 20 mM glucose, 2.5 mM KCl, 1.25 mM NaH2PO4, 10 mM MgSO4, and 0.5 mM CaCl2. Both solutions were bubbled with 95% O2/5% CO2. […]
(§2) Whole-cell voltage clamp recordings were performed on dentate gyrus granule cells using a pipette solution containing: 135 mM CsCl, 5 mM Na-phosphocreatine, 10 mM HEPES, 5 mM EGTA, 4 mM MgATP, 5 mM QX-314, and 0.5 mM Na2GTP (pH 7.3 adjusted with CsOH, 280-290 mOsm/L). […] Data was acquired using pClamp 9 software (Molecular Devices; sampled at 10 kHz and filtered at 1 kHz), and analyzed with Clampfit 9.0 software (Molecular Devices). Field excitatory postsynaptic potentials (fEPSPs) were recorded with glass electrodes filled with 1 M NaCl and 25 mM HEPES (pH 7.3), and were evoked every 20 seconds with a parallel bipolar tungsten electrode (MicroProbes, USA), which was placed at medial perforant path in the dentate gyrus. […]

5xFAD mice = test: Y-maze spontaneous alternation task; assay type: in vivo, mouse; settings: 1 mg kg-1, i.p., once per day for one week, p<0.05
Experimental: L-655,708 was dissolved at 1 mg/mL in DMSO, and frozen in storage aliquots. The working solution was diluted 10 times in normal saline solution. […] The last injection was administrated 30 minutes before behavioral test.
Spontaneous alternation performance was tested as described elsewhere (Oakley et al., J. Neurosci., 26(40):10129-10140 (2006)). […] It allows the assessment of hippocampus-dependent spatial working memory. Each mouse was placed in the center of a symmetrical Y-maze and was allowed to explore freely through the maze during an 8 minute session. The first two minutes were not included for data analysis because mice were exploring new environment. The total number and the sequence of arm entries in the last 6 minutes were recorded and analyzed. Arm entry was defined as the hind paws of the mice had been completely placed in the arm. Analysis was done blind. The percentage of alternation is the number of triads containing entries into all three arms divided by the maximum possible alternations (the total number of arms entered minus 2)×100.
A behavioral analysis was conducted to test the effect of enhanced tonic inhibition on the cognitive function of 5xFAD animals. […] Therefore, it was concluded that the abnormal tonic inhibition in DG is an important contributing factor toward the learning and memory deficit in AD.

human GAT-2 polypeptide = biological target: T2, human GAT-2 polypeptide (Homo sapiens, UniProt Q9NSD5); settings: cited from earlier work
T2 sequence (Q9NSD5 1-602): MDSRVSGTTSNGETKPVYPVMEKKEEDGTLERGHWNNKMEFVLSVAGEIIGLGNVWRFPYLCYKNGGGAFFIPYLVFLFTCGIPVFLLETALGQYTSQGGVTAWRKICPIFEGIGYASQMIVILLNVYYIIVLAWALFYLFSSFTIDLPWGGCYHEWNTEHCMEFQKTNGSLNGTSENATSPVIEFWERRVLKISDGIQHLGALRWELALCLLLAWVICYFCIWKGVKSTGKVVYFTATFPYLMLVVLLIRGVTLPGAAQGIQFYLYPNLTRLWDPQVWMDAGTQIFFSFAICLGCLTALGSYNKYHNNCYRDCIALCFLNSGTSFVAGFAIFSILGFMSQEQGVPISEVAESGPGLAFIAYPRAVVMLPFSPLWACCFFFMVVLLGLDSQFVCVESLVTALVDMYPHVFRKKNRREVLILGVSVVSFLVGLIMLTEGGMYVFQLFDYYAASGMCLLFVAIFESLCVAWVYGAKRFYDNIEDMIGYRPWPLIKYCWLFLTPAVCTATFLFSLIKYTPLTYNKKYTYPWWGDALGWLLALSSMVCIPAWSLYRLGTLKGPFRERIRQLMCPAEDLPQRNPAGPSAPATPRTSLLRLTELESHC

human GAT-3 polypeptide = biological target: T3, human GAT-3 polypeptide (Homo sapiens, UniProt P48066); settings: cited from earlier work
T3 sequence (P48066 1-632): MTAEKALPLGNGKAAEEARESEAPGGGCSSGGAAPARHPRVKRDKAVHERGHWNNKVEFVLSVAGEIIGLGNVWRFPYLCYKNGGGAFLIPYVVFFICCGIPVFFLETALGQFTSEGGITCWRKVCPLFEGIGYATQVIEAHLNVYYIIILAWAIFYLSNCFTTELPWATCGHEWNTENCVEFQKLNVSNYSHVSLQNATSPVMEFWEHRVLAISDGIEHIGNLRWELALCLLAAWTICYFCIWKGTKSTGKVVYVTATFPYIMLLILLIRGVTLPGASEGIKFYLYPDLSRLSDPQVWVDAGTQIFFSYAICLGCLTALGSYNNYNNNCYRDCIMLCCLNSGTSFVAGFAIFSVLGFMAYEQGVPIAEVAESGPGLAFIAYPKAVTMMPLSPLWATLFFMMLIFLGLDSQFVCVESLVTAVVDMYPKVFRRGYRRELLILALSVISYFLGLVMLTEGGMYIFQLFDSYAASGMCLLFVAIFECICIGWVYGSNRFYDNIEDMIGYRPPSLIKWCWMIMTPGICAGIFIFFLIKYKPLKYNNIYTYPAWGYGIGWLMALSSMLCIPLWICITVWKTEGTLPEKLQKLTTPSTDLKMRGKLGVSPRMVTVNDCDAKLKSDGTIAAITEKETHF

human GAT-1 polypeptide = human GAT-1 polypeptide (Homo sapiens, UniProt P30531); settings: cited from earlier work
Sequence of human GAT-1 polypeptide (P30531 whole entry): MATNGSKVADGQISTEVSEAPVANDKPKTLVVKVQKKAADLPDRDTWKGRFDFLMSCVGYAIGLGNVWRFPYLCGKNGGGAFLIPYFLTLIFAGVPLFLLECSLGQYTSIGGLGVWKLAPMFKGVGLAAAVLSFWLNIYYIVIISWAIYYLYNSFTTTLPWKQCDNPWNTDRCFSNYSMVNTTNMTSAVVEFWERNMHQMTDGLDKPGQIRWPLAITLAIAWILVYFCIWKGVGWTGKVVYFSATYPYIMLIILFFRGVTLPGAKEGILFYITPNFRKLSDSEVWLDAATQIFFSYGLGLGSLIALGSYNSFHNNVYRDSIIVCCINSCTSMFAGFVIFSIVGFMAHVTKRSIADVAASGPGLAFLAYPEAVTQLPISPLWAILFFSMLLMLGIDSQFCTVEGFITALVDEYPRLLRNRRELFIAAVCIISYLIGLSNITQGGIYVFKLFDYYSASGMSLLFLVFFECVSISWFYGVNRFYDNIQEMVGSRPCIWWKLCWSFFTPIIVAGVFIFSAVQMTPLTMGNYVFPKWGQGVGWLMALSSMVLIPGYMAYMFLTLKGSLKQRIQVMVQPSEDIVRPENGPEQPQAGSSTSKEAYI

[1] = biological target: T4, neuronal GABA transporters (Mus musculus, UniProt P31648); test: Tonic current induced by blockade of neuronal GABA transporters in dentate granule cells; assay type: cell-based; settings: P>0.4
T4 construct: from tissue; host or cells: mouse hippocampal slices, dentate granule cells
Experimental: FIG. 7, panel a, contains typical traces showing tonic current induced by blockade of neuronal GABA transporters with NO-711 (1-[2-[[(Diphenylmethylene)imino]oxy]ethyl]-1,2,5,6-tetrahydro-3-pyridinecarboxylic acid hydrochloride hydrochloride). Large mIPSCs were truncated to better illustrate the tonic current.
Mice were anesthetized with 2.5% Avertin. After decapitation, brains were rapidly dissected out and placed in ice-cold cutting solution containing: 79 mM NaCl, 80 mM sucrose, 26 mM NaHCO3, 10 mM glucose, 2.5 mM KCl, 1.25 mM NaH2PO4, 7 mM MgSO4, and 0.5 mM CaCl2 for tonic current recordings. […]
as §2

δ-GABAA-Rs = biological target: T5, δ-GABAA-Rs (Mus musculus, UniProt P22933+P63137+Q9D6F4); test: THIP-induced tonic current in dentate granule cells of hippocampal slices; assay type: cell-based; settings: 2 μM, n=8
T5 construct: from tissue; host or cells: mouse hippocampal slices, dentate granule cells
T5 sequence (P22933 17-449 limits assumed): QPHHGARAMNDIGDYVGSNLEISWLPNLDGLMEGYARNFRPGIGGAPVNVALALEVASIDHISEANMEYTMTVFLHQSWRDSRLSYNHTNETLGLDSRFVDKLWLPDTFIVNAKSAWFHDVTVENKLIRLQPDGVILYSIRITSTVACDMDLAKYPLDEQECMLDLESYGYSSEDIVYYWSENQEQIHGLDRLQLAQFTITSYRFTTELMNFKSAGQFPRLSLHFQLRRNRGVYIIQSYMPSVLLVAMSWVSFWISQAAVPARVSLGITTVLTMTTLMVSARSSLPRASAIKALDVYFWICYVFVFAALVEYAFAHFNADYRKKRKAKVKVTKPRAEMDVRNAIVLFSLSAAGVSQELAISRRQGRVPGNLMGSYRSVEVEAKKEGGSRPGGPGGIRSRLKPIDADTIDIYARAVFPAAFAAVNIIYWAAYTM
T5 sequence (Q9D6F4 36-552): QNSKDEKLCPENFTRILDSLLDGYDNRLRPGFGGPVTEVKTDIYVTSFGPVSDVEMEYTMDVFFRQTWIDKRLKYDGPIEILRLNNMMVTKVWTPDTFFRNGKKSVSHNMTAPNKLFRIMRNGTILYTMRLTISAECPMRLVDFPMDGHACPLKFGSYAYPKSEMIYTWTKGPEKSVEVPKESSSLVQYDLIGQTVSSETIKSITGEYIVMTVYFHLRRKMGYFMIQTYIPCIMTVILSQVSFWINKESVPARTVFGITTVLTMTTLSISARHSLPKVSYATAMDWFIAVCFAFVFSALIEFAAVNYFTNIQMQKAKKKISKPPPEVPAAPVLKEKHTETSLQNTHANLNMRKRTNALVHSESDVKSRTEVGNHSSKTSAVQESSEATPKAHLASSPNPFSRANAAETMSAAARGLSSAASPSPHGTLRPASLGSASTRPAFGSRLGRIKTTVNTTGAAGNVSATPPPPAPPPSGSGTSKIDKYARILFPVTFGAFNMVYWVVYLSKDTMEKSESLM
T5 sequence (P63137 25-474 limits assumed): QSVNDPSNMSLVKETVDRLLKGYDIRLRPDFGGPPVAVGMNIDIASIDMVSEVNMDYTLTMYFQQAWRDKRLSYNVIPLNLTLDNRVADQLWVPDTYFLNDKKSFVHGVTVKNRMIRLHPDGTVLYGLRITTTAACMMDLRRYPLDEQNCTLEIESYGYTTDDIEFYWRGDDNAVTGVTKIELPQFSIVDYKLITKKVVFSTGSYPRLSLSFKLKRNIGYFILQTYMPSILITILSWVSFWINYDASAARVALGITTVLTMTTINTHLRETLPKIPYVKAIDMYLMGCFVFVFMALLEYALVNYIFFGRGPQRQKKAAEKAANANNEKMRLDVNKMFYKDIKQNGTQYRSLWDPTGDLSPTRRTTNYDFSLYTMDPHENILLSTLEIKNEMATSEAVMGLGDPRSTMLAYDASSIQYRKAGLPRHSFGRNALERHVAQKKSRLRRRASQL
Experimental: as §1, §2

Structure (SMILES): CCOC(=O)c1ncn2c1C1CCCN1C(=O)c1cc(OC)ccc1-2 [L-655,708, 11,12,13,13a-tetrahydro-7-methoxy-9-oxo-9H-imidazo[1,5-a]pyrrolo[2,1-c][1,4]benzodiaz-epine-1-carboxylic acid, ethyl ester]
block of tonic current (α5-GABAA-Rs; 100 nM, AD (5xFAD) dentate granule cells): majority of tonic current in AD dentate granule cells was blocked
tonic current blocked by L-655,708 (α5-GABAA-Rs; AD (5xFAD) dentate granule cells, n=9): 98.7±12.9 pA
proportion of tonic current blocked, WT vs AD (α5-GABAA-Rs; CA1 neurons): similar
tonic current blocked by L-655,708 (α5-GABAA-Rs; WT dentate granule cells, n=12): 35.4±6.3 pA
effect on LTP impairment (LTP in DG): rescued the LTP impairment
effect on memory deficit (spontaneous alternation) (5xFAD mice): rescued the memory deficit

Structure (SMILES): COc1ccc(C2(O)CCN(CCCn3c4ccccc4c4ccccc43)CC2)cc1 [NNC 05-2045, 1-(3-(9H-carbazol-9-yl)-1-propyl)-4-(4-methoxyphenyl)-4-piperidinol]
Ki (human GAT-2 polypeptide): > 10 µM
Ki (human GAT-3 polypeptide): < 10 µM
Ki (human GAT-1 polypeptide): > 20 µM

tonic currents revealed by NO-711, WT vs. 5xFAD [1]: no difference
Structure (SMILES): Cl.O=C(O)C1=CCCN(CCON=C(c2ccccc2)c2ccccc2)C1 [NO-711, 1-[2-[[(Diphenylmethylene)imino]oxy]ethyl]-1,2,5,6-tetrahydro-3-pyridinecarboxylic acid hydrochloride hydrochloride]

Structure (SMILES): Oc1noc2c1CCNC2 [THIP, 4,5,6,7-tetrahydroisoxazolo[5,4-c]pyridin-3-ol]
THIP-induced tonic current (δ-GABAA-Rs; AD (5xFAD) dentate granule cells): 60.7±10.4 pA
THIP-induced tonic current (δ-GABAA-Rs; WT dentate granule cells): 65.2±6.6 pA
